Assay: Inhibition of human 20S constitutive proteasome beta-1 using Z-LLE-betaNA as substrate incubated for 15 mins measured for 45 mins by fluorescence assay
Molecule C[C@@H](NC(=O)[C@H](Cc1ccc(OCc2ccccc2)cc1)NC(=O)OC(C)(C)C)C(=O)N[C@@H](C[C@]1(O)C(=O)Nc2ccccc21)C(=O)NCc1ccccc1 has an IC50 of 17.1 µM. CC(O)[C@@H](NC(=O)c1ccc(OCc2ccccc2)cc1)C(=O)N[C@@H](C[C@]1(O)C(=O)Nc2ccccc21)C(=O)NCc1ccccc1 (stereo not given in full) gave an IC50 of 31.9 µM. C[C@H](NC(=O)[C@@H](N)Cc1ccc(OCc2ccccc2)cc1)C(=O)N[C@@H](C[C@]1(O)C(=O)Nc2ccccc21)C(=O)NCc1ccccc1 showed an IC50 of 30 µM. C[C@H](NC(=O)[C@H](Cc1ccc(OCc2ccccc2)cc1)NC(=O)OC(C)(C)C)C(=O)N[C@@H](C[C@]1(O)C(=O)N(C)c2ccccc21)C(=O)NCc1ccccc1 gave an IC50 of 11.4 µM. In the case of NCCCC[C@H](NC(=O)[C@@H](N)Cc1ccc(OCc2ccccc2)cc1)C(=O)N[C@@H](C[C@]1(O)C(=O)Nc2ccccc21)C(=O)NCc1ccccc1, the IC50 is reported as 13 µM. For C[C@H](NC(=O)[C@H](Cc1ccc(OCc2ccccc2)cc1)NC(=O)OC(C)(C)C)C(=O)N[C@@H](C[C@@]1(O)C(=O)N(C)c2ccccc21)C(=O)NCc1ccccc1, the IC50 was 13.4 µM. Work on C[C@H](NC(=O)[C@H](Cc1ccc(OCc2ccccc2)cc1)NC(=O)OC(C)(C)C)C(=O)N[C@@H](C[C@]1(O)C(=O)Nc2ccccc21)C(=O)NC(c1ccccc1)c1ccccc1 yielded an IC50 of 2.2 µM. C[C@H](NC(=O)c1ccc(OCc2ccccc2)cc1)C(=O)N[C@@H](C[C@]1(O)C(=O)Nc2ccccc21)C(=O)NCc1ccccc1 showed an IC50 of 35 µM. Molecule C[C@H](NC(=O)[C@H](Cc1ccc(OCc2ccccc2)cc1)NC(=O)OC(C)(C)C)C(=O)N[C@@H](C[C@]1(O)C(=O)Nc2ccccc21)C(=O)NCc1ccc(-c2ccccc2)cc1 has an IC50 of 17.6 µM. C[C@H](NC(=O)Cc1cccc(Oc2ccccc2)c1)C(=O)N[C@@H](C[C@]1(O)C(=O)Nc2ccccc21)C(=O)NCc1ccccc1 gave an IC50 of 40 µM. With C[C@H](NC(=O)[C@H](Cc1ccc(OCc2ccccc2)cc1)NC(=O)OC(C)(C)C)C(=O)N[C@@H](C[C@@]1(O)C(=O)Nc2ccccc21)C(=O)NCc1ccccc1 the IC50 was 17.2 µM. Molecule C[C@H](NC(=O)[C@H](Cc1ccc(OCc2ccccc2)cc1)NC(=O)OC(C)(C)C)C(=O)N[C@@H](C[C@]1(O)C(=O)Nc2ccccc21)C(=O)NCCc1ccccc1 has an IC50 of 4.9 µM. Work on C[C@H](NC(=O)[C@H](Cc1ccc(OCc2ccccc2)cc1)NC(=O)OC(C)(C)C)C(=O)N[C@@H](C[C@]1(O)C(=O)Nc2ccccc21)C(=O)NCc1cccc2ccccc12 yielded an IC50 of 2.14 µM. In the case of CC(C)(C)OC(=O)N[C@@H](Cc1ccc(OCc2ccccc2)cc1)C(=O)N[C@@H](CC(N)=O)C(=O)N[C@@H](C[C@]1(O)C(=O)Nc2ccccc21)C(=O)NCc1ccccc1, the IC50 is reported as 20.1 µM. In the case of C[C@H](NC(=O)[C@H](Cc1ccc(OCc2ccccc2)cc1)NC(=O)OC(C)(C)C)C(=O)N[C@@H](C[C@]1(O)C(=O)Nc2ccccc21)C(=O)NCC(C)(C)C, the IC50 is reported as 15.1 µM.

From BindingDB's records for doi:10.1016/j.ejmech.2018.01.013 (University of Rennes 1, 2018)
